Source: US12569500B2, “Combination comprising tricycle compound and use thereof in preparation of medicament for treating HBV” (FUJIAN AKEYLINK BIOTECHNOLOGY CO., LTD., priority 2020, dated 2026)
Structures can show the parent of a compound that is named as a salt.

Experiments:
Format in all cases: cell-based
[1] = Single agent cytotoxicity, CellTiter-Glo; conditions: human, HepG2.2.15 cells
Method: (§1) Cell line: HepG2.2.15 cells are constructed and provided by WuXi AppTec. The cell culture medium is DMEM/F12 medium supplemented with 2% fetal bovine serum, 2 mM glutamine, 1×non-essential amino acids, 100 U/mL penicillin and 100 µg/mL streptomycin.
(§2) 2.1.1 On the first day, HepG2.2.15 cells were seeded into a 96-well cell culture plate at a density of 60,000 cells/well, and then the cells were cultured overnight at 5% CO2 and 37° C. On the second day, the compound 1 and the compound of formula (IIb) and the compound of formula (IIIb) were diluted and added to a 96-well plate. Each combination was a three-fold plate. The cells were cultured under 5% CO2 and 37° C. for 3 days. On the 5th day, a new culture medium containing the compound was replaced, and the supernatant was collected on the 8th day. The HBsAg in the supernatant was detected by ELISA, and the DNA in the supernatant was extracted at the same time, and the content of HBV DNA in the supernatant was detected by quantitative PCR. After collecting the cell supernatant, add CellTiter-Glo to detect cell viability.

HepG2.2.15 cells [2] = assay: Cytotoxicity of the compounds in combination, CellTiter Glo
Method: as §1
2.2.1 On the first day, HepG2.2.15 cells were seeded into a 96-well cell culture plate at a density of 60,000 cells/well, and then the cells were cultured overnight at 5% CO2 and 37° C. On the second day, different concentrations of compounds were added to treat the cells. Compounds were diluted in gradients, 7×7 concentration combinations, and 3 replicate plates were tested in parallel. The compound concentration tested for joint activity is based on the EC50 value of each compound. The 7 concentration gradients are approximately: 2×, 1×, ½×, ¼×, ⅛×, 1/16× and 1/32×EC50. The compound concentration of the combined activity test experiment is shown in Table 8, and the combination drug arrangement is shown in Table 9. On the 5th day, replace the fresh culture medium containing the compound. On the 8th day, the culture supernatant was collected, DNA was extracted, and the content of HBV DNA was detected by quantitative PCR. At the same time, CellTiter Glo reagent was used to detect cell viability and MacSynergy software was used to analyze the combined effect of the two drugs.

HBV = assay: Single agent anti-HBV activity, HBV DNA in supernatant by quantitative PCR, HepG2.2.15 cells; conditions: Hepatitis B virus, 192 h, day 8
Method: as §1, §2

HBsAg = assay: Single agent anti-HBV activity, HBsAg in supernatant by ELISA, HepG2.2.15 cells; conditions: Hepatitis B virus, HepG2.2.15, 192 h, read-out: HBsAg EC50
Method: as §1, §2

HepG2.2.15 cells [3] = assay: CellTiter-Glo cytotoxicity of compound 1 / TDF combination
Method: 1.1 Day 1, HepG2.2.15 cells were seeded into a 96-well cell culture plate at a density of 40,000 cells/well, and then the cells were cultured overnight at 5% CO2 and 37° C.
1.2 Day 2, the compound 1 and TDF were combined with 7 different concentrations (selected about 8×, 4×, 2×, 1×, 0.5×, 0.25×, 0.125×EC50 concentration gradient) for orthogonal proportioning, and added to 96-well plate, each combination is 3 double plates, and the final concentration of DMSO is 0.5%.
1.3 Day 5, the cell supernatant was discarded, a fresh medium containing the compound was added, and the cells were cultured under 5% CO2, 37° C. for 3 days. On the 8th day, the supernatant from the cell plate treated with the compound was extracted according to the QIAamp 96 DNA Blood Kit (12) instruction.
MacSynegy software (Prichard et al., 1990) was used to process the HBV DNA copy number test data and analyze the effect parameters of compound 1 and TDF in combination. The CellTiter-Glo kit was used to detect the cytotoxicity of the compounds to HepG2.2.15 cells. According to the kit instructions, use a multifunctional microplate reader to detect the chemiluminescence intensity (RLU) of each cell well.

## COCCCOc1cc2c(cc1OC)-c1cc(=O)c(C(=O)O)cn1[C@H](c1cccs1)O2 [Compound of formula (IIIb)]
[1]
  CC50 at 6 days: > 50 nM
HepG2.2.15 cells [2]; Compound 1 0 nM + formula (IIIb) 0.01875 nM
  average cell viability percentage: 103.45%
HepG2.2.15 cells [2]; Compound 1 0 nM + formula (IIIb) 0.0375 nM
  average cell viability percentage: 103.81%
HepG2.2.15 cells [2]; Compound 1 0 nM + formula (IIIb) 0.075 nM
  average cell viability percentage: 105.64%
HepG2.2.15 cells [2]; Compound 1 0 nM + formula (IIIb) 0.15 nM
  average cell viability percentage: 105.68%
HepG2.2.15 cells [2]; Compound 1 0 nM + formula (IIIb) 0.3 nM
  average cell viability percentage: 103.14%
HepG2.2.15 cells [2]; Compound 1 0 nM + formula (IIIb) 0.6 nM
  average cell viability percentage: 103.50%
HepG2.2.15 cells [2]; Compound 1 0 nM + formula (IIIb) 1.2 nM
  average cell viability percentage: 112.02%
HBV
  EC50: 0.78 nM
HBsAg
  EC50: 0.91 nM

## COCCCOc1cc2c(cc1OC)-c1cc(=O)c(C(=O)O)cn1[C@H](C(C)(C)C)CO2 [Compound of formula (IIb)]
[1]
  CC50 at 6 days: > 1000 nM
HepG2.2.15 cells [2]; Compound 1 0 nM + formula (IIb) 0.09375 nM
  average cell viability percentage: 101.23%
HepG2.2.15 cells [2]; Compound 1 0 nM + formula (IIb) 0.1875 nM
  average cell viability percentage: 101.98%
HepG2.2.15 cells [2]; Compound 1 0 nM + formula (IIb) 0.375 nM
  average cell viability percentage: 102.39%
HepG2.2.15 cells [2]; Compound 1 0 nM + formula (IIb) 0.75 nM
  average cell viability percentage: 105.36%
HepG2.2.15 cells [2]; Compound 1 0 nM + formula (IIb) 1.5 nM
  average cell viability percentage: 104.15%
HepG2.2.15 cells [2]; Compound 1 0 nM + formula (IIb) 3 nM
  average cell viability percentage: 102.61%
HepG2.2.15 cells [2]; Compound 1 0 nM + formula (IIb) 6 nM
  average cell viability percentage: 111.27%
HBV
  EC50: 1.52 nM
HBsAg
  EC50: 4.9 nM

## CC(C)OC(=O)OCOP(=O)(CO[C@H](C)Cn1cnc2c(N)ncnc21)OCOC(=O)OC(C)C [TDF, tenofovir disoproxil fumarate, reference compound]
HepG2.2.15 cells [3]; Compound 1 0 nM + TDF 1 nM
  average cell viability percentage: 103.1%
HepG2.2.15 cells [3]; Compound 1 0 nM + TDF 2 nM
  average cell viability percentage: 101.1%
HepG2.2.15 cells [3]; Compound 1 0 nM + TDF 4 nM
  average cell viability percentage: 103.8%
HepG2.2.15 cells [3]; Compound 1 0 nM + TDF 8 nM
  average cell viability percentage: 116.6%
HepG2.2.15 cells [3]; Compound 1 0 nM + TDF 16 nM
  average cell viability percentage: 111.4%
HepG2.2.15 cells [3]; Compound 1 0 nM + TDF 32 nM
  average cell viability percentage: 111 ± 7.3%
HepG2.2.15 cells [3]; Compound 1 0 nM + TDF 64 nM
  average cell viability percentage: 127 ± 14%
